Measurements reported in patent US20070248629A1, “PHARMACEUTICAL FORMULATIONS FOR IONTOPHORETIC DRUG DELIVERY” (priority 2006, published 2007).
Converted amounts (≈) assume the structure as drawn.

How the values were obtained:
[1] = pH 7; cited from earlier work
physchem [2] = conditions: pH 11
From the text: (§1) Essentially the same values are obtained from the propylene glycol/water formulations. […] The observed pH of the 88% neutralized solutions is weakly affected by the cosolvent to water ratio.

physchem [3] = experiment: physchem
[4] = Soluble acyclovir in acyclovir sodium gels by centrifugation and HPLC; conditions: for soluble species contributing to soluble acyclovir: 88 mole % sodium hydroxide, based on base charge / calculated by difference
From the text: The presence or absence of a pellet was noted and an aliquot of the supernatant was removed for dilution and analysis by HPLC.
as §1

[5] = Solubility of acyclovir and sodium acyclovir in water and cosolvent mixtures; conditions: propylene glycol/water solution, aqueous with cosolvent or surfactant or cyclodextrin

| Compound | solubility in water [1] | pKa (physchem [2]) | solubility (physchem [3]; pH 7, aqueous with cosolvent or surfactant or cyclodextrin) | soluble species contributing to soluble acyclovir ([4]; glycerin solutions, listed as neutral acyclovir) | soluble acyclovir (total) ([4]; partial neutralization (88 mole % sodium hydroxide), glycerin solutions) | solubility [5] | solubility (physchem [3]; water) | soluble species contributing to soluble acyclovir ([4]; glycerin solutions) | solubility in gels with complete neutralization ([4]; 105 and 116 mole % sodium hydroxide) |
| --- | --- | --- | --- | --- | --- | --- | --- | --- | --- |
| Nc1nc2c(ncn2COCCO)c(=O)[nH]1 [acyclovir] | 1300 µg/mL (≈ 5.77 mM) | 9.8 | 3000 µg/mL (≈ 13.3 mM) | 0.3% | 5.3% | 3000 µg/mL (≈ 13.3 mM) | – | – | – |
| Nc1nc2c(ncn2COCCO)c(=O)[nH]1 [sodium acyclovir] | – | – | – | – | – | – | > 100000 µg/mL | 5.0% | greater than 5.7 weight percent |
